Data published in patent US20240117005A1, “NOVEL BICYCLIC PEPTIDES” (THE COUNCIL OF THE QUEENSLAND INSTITUTE OF MEDICAL RESEARCH, priority 2021, published 2024).
“Also recorded” adds a separate entry of the source. No end group written: not given here. *: point of attachment. Myristyl = CCCCCCCCCCCCCC*

Columns and labels:
[1] = test system: CSV, ABCB5, EGFR, FOXQ1, E-Cadherin in MDA-MB-231 cells; experiment: High resolution digital pathology of mesenchymal/epithelial markers, MDA-MB-231; assay type: cell-based, human
Procedure: (§1) To examine the signature of CD8, CSV, EGFR, ABCB5, FOXQ1, commercial PD-L1-28-8, nuclear PD-L1, cytoplasmic PDL1 in MDA-MB-231 TNBC cells/TNBC brain cancer clone cells (untreated or treated with bicyclic inhibitors targeting nuclear PD-L1-PTM1). MDA-MB-231/MDA-MB-231-Br cells were permeabilised by incubating with 0.5% Triton X-100 for 15 min, blocked with 1% BSA in PBS and were probed with either CSV (Mouse host), CD8 (mouse host), EGFR (Rabbit host), ABCB5 (Goat Host), ALDH1A (Rabbit Host), NODAL (Goat Host), nuclear PDL1 (rabbit host), cytoplasmic PD-L1 (rabbit host) visualized with a donkey anti-rabbit AF 488, anti-mouse AF 568, donkey anti-goat 647. Cover slips were mounted on glass microscope slides with ProLong Glass Antifade reagent (Life Technologies). Protein targets were localised by digital pathology laser scanning microscopy. Single 0.5 μm sections were obtained using a ASI Digital pathology microscope using 100× oil immersion lens running ASI software. The final image was obtained by averaging four sequential images of the same section. Digital images were analyzed using automated ASI software (Applied Spectral Imaging, Carlsbad, CA) to determine the distribution and intensities automatically with automatic thresholding and background correction of the average nuclear fluorescence intensity (NFI), allowing for the specific targeting of expression of proteins of interest. Digital images were also analysed using ImageJ software (ImageJ, NIH, Bethesda, MD, USA) to determine the total cell fluorescence or cell surface only fluorescence for non-permeabilised cells. Digital images were analysed using ImageJ software (ImageJ, NIH, Bethesda, MD, USA) to determine either the Total Nuclear Fluorescent Intensity (TNFI), the Total Cytoplasmic Fluorescent Intensity (TCFI). ImageJ software with automatic thresholding and manual selection of regions of interest (ROIs) specific for cell nuclei was used to calculate the Pearson's co-efficient correlation (PCC) for each pair of antibodies. PCC values range from: −1=inverse of co-localisation, 0=no co-localisation, +1=perfect co-localisation. The Mann-Whitney nonparametric test (GraphPad Prism, GraphPad Software, San Diego, CA) was used to determine significant differences between datasets.
All breast cancer cell lines used were sourced from ATCC. MDA-MB-231 or MDB-MB-231-Br cell lines were maintained and cultured in DMEM (Invitrogen) supplemented with 10% FBS, 2 mM L-glutamine, and 1% PSN. […]
(§2) MDA-MB-231 were permeabilized and treated with either vehicle control or, DL-2 (current stock), or linear PDL1 (PDL1-L1). […] Significant differences are calculated as one-way ANOVA Kruskal-Wallis test comparison to vehicle control. […]

PD-L1-Me3 (PD-L1-PTM2) = experiment: High resolution digital pathology of PD-L1-Me3 (PDL1-PTM2) localisation; assay type: cell-based, human; conditions: for cytoplasmic expression of PDL1-PTM2 (PDL1-Me3): MDA-MB-231, vs vehicle control
Procedure: as §1
All breast cancer cell lines used were sourced from ATCC. MDA-MB-231 or MDB-MB-231-Br cell lines were maintained and cultured in DMEM (Invitrogen) supplemented with 10% FBS, 2 mM L-glutamine, and 1% PSN. MCF-7 cells were stimulated with 1.29 ng/mL phorbol 12-myristate 13-acetate (PMA) (Sigma-Aldrich) or 5 ng/ml recombinant TGF-β1 (R&D Systems) for 60 hours. For inhibitor studies, 2×10^5 cells were seeded in 2 mL complete media in 6 well plates and incubated overnight at 37° C./5% CO2. Cells were treated with PD-L1 bicyclic peptides targeting the nuclear axis PD-L1, HDAC2i or vehicle control. For qPCR analysis, at each time point, adherent cells were trypsinized, washed and cell pellets stored at −80° C. until further processing. For microscopy studies, 4×10^4 cells were seeded on coverslips and treated with inhibitors as described above. At each timepoint, coverslips were washed, fixed with 3.7% formaldehyde (Sigma) and stored at 4° C. until processing. […]
as §2

[2] = biological target: T1, complex of PDL1-PTM1 and IMPα1 (Mus musculus, UniProt P52293); experiment: DUOLINK proximity assay PDL1-PTM1 and IMPα1, CT26; assay type: cell-based
T1 construct: endogenous in cells; host or cells: CT26
Procedure: (A) CT26, 4T1 or MDA-MB-231 Cells were treated with inhibitors for 72 hours. Following inhibition, media was removed and replaced with WST-1 cell proliferation reagent. Absorbance was recorded at 450 nm after 1 hour. Data represent a single independent experiment performed in triplicate. Results are graphed as mean +/− standard error (SE). B) MDA-MB-231 or CT26 cancer cells were treated with vehicle control, DL-2-Batch 1 (original stock), DL-2-Batch 2 (current stock), DL-2-TBAB or linear PDL1. Cells were permeabilised and were probed with the DUOLINK ligation assay. Cover slips were mounted on glass microscope slides with ProLong nucblue glass Antifade reagent (Life Technologies). PDL1Ac and IMPα1 DUOLINK Digital images were analysed using ImageJ software (ImageJ, NIH, Bethesda, MD, USA) and graphs represent the mean DOT Fluorescent Intensity in the nucleus or the cytoplasm compartments with significant differences calculated as per one-way ANOVA comparison. […] PDL1-unmodified and IMPα1 DUOLINK digital images were analysed using ImageJ software (ImageJ, NIH, Bethesda, MD, USA) and graphs represent the mean DOT fluorescent intensity in the nucleus or the cytoplasm compartments with significant differences calculated as per one-way ANOVA comparison. […]

Row | Compound | expression of the epithelial marker E-Cadherin ([1]; MDA-MB-231) | expression of mesenchymal marker CSV (CFI) ([1]; MDA-MB-231, vs vehicle control) | mesenchymal stem-like resistant protein markers (CSV, ABCB5, EGFR, FOXQ1) ([1]; MDA-MB-231, vs vehicle control) | cytoplasmic expression of PDL1-PTM2 (PDL1-Me3) (PD-L1-Me3 (PD-L1-PTM2)) | expression of cell surface PD-L1-Me3 (PD-L1-Me3 (PD-L1-PTM2); non-permeabilized MDA-MB-231 cells) | cytoplasmic/cell surface PD-L1-Me3 (PD-L1-Me3 (PD-L1-PTM2); permeabilized MDA-MB-231 cells) | expression of nuclear PD-L1-Me3 (PD-L1-Me3 (PD-L1-PTM2); permeabilized MDA-MB-231 cells) | complex of PDL1-PTM1 and IMPα1 (DUOLINK) [2] | expression of mesenchymal marker CSV (CFI) ([1]; MDA-MB-231, vs vehicle control, listed as linear PDL1 peptide) | cytoplasmic expression of PDL1-PTM2 (PDL1-Me3) (PD-L1-Me3 (PD-L1-PTM2); listed as linear PDL1 peptide)
1 | CCCCCCCCCCCCCC(=O)NC(C)C(=O)NC1CSCc2cc3cc(c2)CSC[C@H](NC(=O)[C@H](Cc2ccccc2)NC(=O)[C@H](C(C)CC)NC(=O)[C@H](Cc2ccccc2)NC(=O)[C@H]([C@@H](C)O)NC(=O)C(CC(C)C)NC1=O)C(=O)N[C@@H](CCCNC(C)=N)C(=O)N[C@@H](CC(C)C)C(=O)N[C@@H](CCCNC(=N)N)C(=O)N[C@@H](CCCCN)C(=O)NCC(=O)N[C@@H](CCCNC(=N)N)C(=O)NC(C(=O)N[C@@H](CCSC)C(=O)NC(CCSC)C(=O)N[C@@H](CC(=O)O)C(=O)NC(C(=O)N[C@@H](CCCCN)C(=O)NC(CCCCN)C(=O)O)C(C)C)CSC3 (mixture of isomers) [DL-2] | able to induce expression | inhibit | significantly inhibit | induce increased cytoplasmic expression | significant upregulation | significantly upregulating | abrogating | able to successfully abrogate the complex |  | 
2 | LTFIFRLRKGRMMDVKK (Myristyl-LTFIFRLRKGRMMDVKK) [PDL1-L1, Myristyl- linear peptide, prototype] |  |  |  |  |  |  |  | no change | reduce expression of CSV with far less significance; also recorded: able to reduce expression of CSV | not able to induce any increased expression; also recorded: did not induce any increased expression
